Laboratory results reported in the supplement of paper PMC12463676, “Small-molecule dissolution of stress granules by redox modulation benefits ALS models” (Nature Chemical Biology, 2025).

Tests used:
potassium arsenate = compound: O=[As]([O-])(O)O.[K+] [potassium arsenate]; experiment: thermal stability z-score vs DMSO; higher = more thermally stabilized by treatment; settings: HeLa; arsenate concentration 1 mM
Procedure: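 Cellular thermal proteome profiling in HeLa cells treated with 1 mM arsenate for 1 h (DMSO pretreatment), heated to ten temperatures (37-66.3 °C). Soluble protein was quantified by TMT mass spectrometry relative to DMSO controls; the thermal stability score was transformed to a z-score; mean of n = 3 experiments.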

lipoamide = compound: NC(=O)CCCCC1CCSS1 [lipoamide]; experiment: as above; settings: HeLa, lipoamide concentration 100 µM
Procedure: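 Cellular thermal proteome profiling in HeLa cells. Cells were treated with 100 µM lipoamide for 1 h, with or without 1 mM arsenate for a further 1 h, then heated to ten temperatures (37-66.3 °C), and soluble protein was quantified by TMT mass spectrometry relative to 0.1% DMSO controls. The thermal stability score (sum of log2 fold changes minus the abundance score) was transformed to a z-score; mean of n = 3 experiments.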

[1] = arsenate co-treatment: 1 mM arsenate 1 h
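Note: each temperature applied for 3 min, abundance score taken as mean log2 fold change at the two lowest temperatures, z-score obtained by mean subtraction and division by SD.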

Chain of UniProt Q6IQ22 (Q6IQ22 whole entry): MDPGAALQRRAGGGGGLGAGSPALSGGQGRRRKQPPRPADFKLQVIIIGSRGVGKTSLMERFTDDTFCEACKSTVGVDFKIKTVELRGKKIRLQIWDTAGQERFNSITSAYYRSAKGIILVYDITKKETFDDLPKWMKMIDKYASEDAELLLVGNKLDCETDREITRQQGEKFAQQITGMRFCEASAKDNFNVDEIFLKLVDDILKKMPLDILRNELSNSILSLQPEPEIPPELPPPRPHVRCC
Chain of UniProt O00330 (O00330 whole entry): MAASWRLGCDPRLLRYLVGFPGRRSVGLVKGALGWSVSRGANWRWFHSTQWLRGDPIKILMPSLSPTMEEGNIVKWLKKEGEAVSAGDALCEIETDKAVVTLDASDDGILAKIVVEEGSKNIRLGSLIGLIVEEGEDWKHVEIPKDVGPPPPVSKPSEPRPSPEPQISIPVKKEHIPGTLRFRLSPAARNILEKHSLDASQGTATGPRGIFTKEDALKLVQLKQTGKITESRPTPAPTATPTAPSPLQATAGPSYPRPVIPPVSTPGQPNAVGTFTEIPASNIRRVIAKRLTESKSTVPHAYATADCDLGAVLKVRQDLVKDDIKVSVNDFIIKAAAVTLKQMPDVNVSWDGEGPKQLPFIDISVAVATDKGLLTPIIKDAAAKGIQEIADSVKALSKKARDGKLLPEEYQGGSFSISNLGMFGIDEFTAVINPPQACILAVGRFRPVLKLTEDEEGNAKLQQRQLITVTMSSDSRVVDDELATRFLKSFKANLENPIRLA
Chain of UniProt Q08AM6 (Q08AM6 whole entry): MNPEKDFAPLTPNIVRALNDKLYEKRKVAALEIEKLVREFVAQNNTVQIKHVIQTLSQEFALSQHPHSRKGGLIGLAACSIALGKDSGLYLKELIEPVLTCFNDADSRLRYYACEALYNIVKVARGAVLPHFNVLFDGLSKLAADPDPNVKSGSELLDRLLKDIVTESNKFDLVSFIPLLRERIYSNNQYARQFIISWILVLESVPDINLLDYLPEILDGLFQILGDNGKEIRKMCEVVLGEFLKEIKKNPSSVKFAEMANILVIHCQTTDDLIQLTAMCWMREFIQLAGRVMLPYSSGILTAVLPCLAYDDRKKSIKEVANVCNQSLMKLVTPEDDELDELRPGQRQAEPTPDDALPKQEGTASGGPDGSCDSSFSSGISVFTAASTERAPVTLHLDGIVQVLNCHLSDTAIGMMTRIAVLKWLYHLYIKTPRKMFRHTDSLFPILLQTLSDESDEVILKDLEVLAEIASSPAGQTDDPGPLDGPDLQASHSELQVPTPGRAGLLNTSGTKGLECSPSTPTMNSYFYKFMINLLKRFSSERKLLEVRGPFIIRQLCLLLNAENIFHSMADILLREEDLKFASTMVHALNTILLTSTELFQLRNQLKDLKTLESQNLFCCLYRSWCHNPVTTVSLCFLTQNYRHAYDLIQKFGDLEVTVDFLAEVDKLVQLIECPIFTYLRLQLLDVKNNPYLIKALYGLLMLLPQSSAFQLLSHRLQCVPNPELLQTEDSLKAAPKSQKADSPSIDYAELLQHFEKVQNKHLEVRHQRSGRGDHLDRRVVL
Chain of UniProt O94903 (O94903 whole entry): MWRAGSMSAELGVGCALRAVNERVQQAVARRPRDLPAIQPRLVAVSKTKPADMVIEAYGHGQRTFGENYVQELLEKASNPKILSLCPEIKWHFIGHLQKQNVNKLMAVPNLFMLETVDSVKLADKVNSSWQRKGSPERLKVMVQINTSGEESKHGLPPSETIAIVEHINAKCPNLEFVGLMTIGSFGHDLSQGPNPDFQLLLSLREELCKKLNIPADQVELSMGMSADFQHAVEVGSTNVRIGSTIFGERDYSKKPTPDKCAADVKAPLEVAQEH
Chain of UniProt Q9NZ43 (Q9NZ43 whole entry): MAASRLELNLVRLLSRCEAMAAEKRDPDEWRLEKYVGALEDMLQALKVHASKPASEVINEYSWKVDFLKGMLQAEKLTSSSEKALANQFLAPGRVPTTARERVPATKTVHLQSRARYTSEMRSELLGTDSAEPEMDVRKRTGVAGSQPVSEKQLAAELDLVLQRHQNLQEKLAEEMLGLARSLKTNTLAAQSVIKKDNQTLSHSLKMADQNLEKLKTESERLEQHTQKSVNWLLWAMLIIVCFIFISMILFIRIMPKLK
Chain of UniProt Q9BT09 (Q9BT09 whole entry): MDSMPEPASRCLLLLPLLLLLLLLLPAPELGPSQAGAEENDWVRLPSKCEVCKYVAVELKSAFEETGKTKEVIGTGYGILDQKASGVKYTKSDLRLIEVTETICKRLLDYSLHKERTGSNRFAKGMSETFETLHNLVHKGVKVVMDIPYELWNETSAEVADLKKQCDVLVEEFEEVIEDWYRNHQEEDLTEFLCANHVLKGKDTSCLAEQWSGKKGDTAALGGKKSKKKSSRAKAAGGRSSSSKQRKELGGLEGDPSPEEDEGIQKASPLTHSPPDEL
Chain of UniProt P46977 (P46977 whole entry): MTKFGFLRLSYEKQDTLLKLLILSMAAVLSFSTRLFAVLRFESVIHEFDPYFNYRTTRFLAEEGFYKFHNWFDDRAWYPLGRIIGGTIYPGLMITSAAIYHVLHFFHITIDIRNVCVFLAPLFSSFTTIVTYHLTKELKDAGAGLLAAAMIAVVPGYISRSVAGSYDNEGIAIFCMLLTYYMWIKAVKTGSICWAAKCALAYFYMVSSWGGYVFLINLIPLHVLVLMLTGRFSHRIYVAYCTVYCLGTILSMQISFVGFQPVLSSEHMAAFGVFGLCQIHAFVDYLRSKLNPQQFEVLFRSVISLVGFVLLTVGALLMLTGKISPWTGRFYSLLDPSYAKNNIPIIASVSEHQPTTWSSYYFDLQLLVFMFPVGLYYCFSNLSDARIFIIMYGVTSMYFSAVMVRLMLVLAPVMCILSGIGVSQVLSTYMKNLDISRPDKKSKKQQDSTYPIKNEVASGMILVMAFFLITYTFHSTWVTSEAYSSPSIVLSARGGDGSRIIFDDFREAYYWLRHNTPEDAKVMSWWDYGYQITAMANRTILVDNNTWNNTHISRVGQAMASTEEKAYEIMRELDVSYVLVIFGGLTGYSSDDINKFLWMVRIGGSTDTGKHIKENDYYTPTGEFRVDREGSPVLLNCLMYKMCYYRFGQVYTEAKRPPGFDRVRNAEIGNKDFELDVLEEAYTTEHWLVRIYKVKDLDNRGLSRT
Chain of UniProt Q9UGM6 (Q9UGM6 whole entry): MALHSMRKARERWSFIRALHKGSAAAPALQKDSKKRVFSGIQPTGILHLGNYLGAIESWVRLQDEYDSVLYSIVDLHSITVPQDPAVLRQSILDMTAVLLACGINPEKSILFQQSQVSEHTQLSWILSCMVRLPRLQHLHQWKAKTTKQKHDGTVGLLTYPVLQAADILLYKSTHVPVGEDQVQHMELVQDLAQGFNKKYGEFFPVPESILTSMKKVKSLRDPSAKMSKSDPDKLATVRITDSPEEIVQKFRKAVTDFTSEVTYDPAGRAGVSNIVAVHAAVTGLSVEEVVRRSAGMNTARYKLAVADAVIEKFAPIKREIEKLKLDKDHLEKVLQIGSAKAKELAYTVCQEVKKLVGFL
Chain of UniProt Q9NVC6 (Q9NVC6 whole entry): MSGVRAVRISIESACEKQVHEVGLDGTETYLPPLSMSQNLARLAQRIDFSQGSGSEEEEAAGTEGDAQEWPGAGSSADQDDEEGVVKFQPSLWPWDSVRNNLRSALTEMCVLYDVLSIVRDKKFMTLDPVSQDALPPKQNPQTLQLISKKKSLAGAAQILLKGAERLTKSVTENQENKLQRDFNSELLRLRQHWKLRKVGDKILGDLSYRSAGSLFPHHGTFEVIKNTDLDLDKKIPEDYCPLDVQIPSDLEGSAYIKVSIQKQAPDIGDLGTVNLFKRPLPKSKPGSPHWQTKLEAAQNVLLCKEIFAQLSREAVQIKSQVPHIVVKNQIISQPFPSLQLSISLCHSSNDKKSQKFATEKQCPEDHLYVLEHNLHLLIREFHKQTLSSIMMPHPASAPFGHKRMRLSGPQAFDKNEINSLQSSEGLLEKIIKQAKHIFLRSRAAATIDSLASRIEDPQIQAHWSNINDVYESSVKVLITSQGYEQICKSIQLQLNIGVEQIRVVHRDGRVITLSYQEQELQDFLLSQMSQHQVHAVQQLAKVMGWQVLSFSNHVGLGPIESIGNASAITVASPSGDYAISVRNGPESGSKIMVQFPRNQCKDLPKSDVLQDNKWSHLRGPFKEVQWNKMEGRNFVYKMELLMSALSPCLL
Chain of UniProt P31641 (P31641 whole entry): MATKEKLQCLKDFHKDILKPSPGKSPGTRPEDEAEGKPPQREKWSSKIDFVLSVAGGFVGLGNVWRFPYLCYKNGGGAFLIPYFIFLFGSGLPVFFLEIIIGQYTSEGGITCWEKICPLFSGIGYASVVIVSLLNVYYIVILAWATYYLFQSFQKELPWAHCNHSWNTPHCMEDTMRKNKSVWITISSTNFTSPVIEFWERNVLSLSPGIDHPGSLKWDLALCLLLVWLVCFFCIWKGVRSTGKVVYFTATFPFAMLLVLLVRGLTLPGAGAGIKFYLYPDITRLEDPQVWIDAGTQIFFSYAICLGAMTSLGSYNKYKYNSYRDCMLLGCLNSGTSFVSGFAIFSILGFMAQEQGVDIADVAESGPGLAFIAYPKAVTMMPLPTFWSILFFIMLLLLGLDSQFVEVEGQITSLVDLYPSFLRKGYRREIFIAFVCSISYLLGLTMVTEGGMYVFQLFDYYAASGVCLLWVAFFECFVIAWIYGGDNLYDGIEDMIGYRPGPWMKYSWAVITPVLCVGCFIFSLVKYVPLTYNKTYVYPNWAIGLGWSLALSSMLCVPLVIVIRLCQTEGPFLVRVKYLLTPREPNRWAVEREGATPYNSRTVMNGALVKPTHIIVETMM
Chain of UniProt Q6P1X6 (Q6P1X6 whole entry): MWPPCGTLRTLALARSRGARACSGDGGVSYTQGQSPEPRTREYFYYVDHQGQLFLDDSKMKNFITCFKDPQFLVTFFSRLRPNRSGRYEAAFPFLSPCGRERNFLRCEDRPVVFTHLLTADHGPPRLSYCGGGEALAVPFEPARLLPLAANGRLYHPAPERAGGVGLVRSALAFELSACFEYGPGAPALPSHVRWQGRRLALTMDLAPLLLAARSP

Row | Target | thermal stability z-score (potassium arsenate) | thermal stability z-score (lipoamide; [1]) | thermal stability z-score (lipoamide; arsenate co-treatment: none)
1 | WDR44 (UniProt Q5JSH3) | 0.635 | 0.411 | 0.42
2 | PROSC (UniProt O94903) | -1.14 | -0.595 | 0.453
3 | SUZ12 (UniProt Q15022) | -0.186 | -0.0278 | -0.101
4 | PLEKHB2 (UniProt Q96CS7) | 0.675 | -0.698 | -0.101
5 | SQRDL (UniProt Q9Y6N5) | -1.36 | -0.541 | -1.81
6 | GRPEL1 (UniProt Q9HAV7) | -0.236 | -0.953 | 0.246
7 | PPP2CA (UniProt P67775) | -1.92 | 0.297 | 0.0726
8 | PDE6D (UniProt O43924) | 0.912 | 0.899 | 0.515
9 | NOL6 (UniProt Q9H6R4) | -0.592 | 0.328 | -0.0357
10 | C8ORF82 (UniProt Q6P1X6) | -0.319 | 0.229 | -0.151
11 | CMTR2 (UniProt Q8IYT2) | -0.0808 | 0.107 | 0.13
12 | KCTD1 (UniProt Q719H9) | -1.07 | 1.16 | 0.0871
13 | LAMP2 (UniProt P13473) | 0.0434 | -0.0628 | -0.138
14 | OSBPL1A (UniProt Q9BXW6) | 0.355 | -1.13 | 0.611
15 | TNRC6B (UniProt Q9UPQ9) | -0.306 | -0.194 | -0.00843
16 | ANKFY1 (UniProt Q9P2R3) | 0.477 | 0.069 | 0.106
17 | WARS2 (UniProt Q9UGM6) | -0.284 | -0.731 | -0.143
18 | RAB12 (UniProt Q6IQ22) | 0.678 | 1.06 | 1.06
19 | LSM6 (UniProt P62312) | -0.309 | 0.895 | 0.267
20 | NDE1 (UniProt Q9NXR1) | 0.0354 | 0.584 | 0.266
21 | OGDH (UniProt Q02218) | -0.531 | 0.182 | 0.151
22 | TADA3 (UniProt O75528) | 0.199 | 0.0748 | 0.099
23 | MAGED2 (UniProt Q9UNF1) | 0.741 | -0.0801 | 0.24
24 | RRAS2 (UniProt P62070) | 0.544 | 0.129 | 0.0499

Row | Target | thermal stability z-score (potassium arsenate) | thermal stability z-score (lipoamide; [1]) | thermal stability z-score (lipoamide; arsenate co-treatment: none)
25 | C11ORF54 (UniProt Q9H0W9) | 0.829 | 2.36 | 3.02
26 | GTF3C3 (UniProt Q9Y5Q9) | -0.461 | -0.0672 | 0.0153
27 | PRKAA1 (UniProt Q13131) | 0.048 | -0.417 | -0.0988
28 | SLC6A6 (UniProt P31641) | -0.649 | -0.428 | -0.488
29 | SSBP1 (UniProt Q04837) | 1.94 | 1.55 | 0.76
30 | FBXO3 (UniProt Q9UK99) | -1.06 | -0.185 | -0.251
31 | SRSF7 (UniProt Q16629) | 0.182 | 1.94 | 0.776
32 | KIF23 (UniProt Q02241) | -0.0543 | 0.207 | 0.324
33 | STT3A (UniProt P46977) | -0.218 | -2.6 | -1.98
34 | LARS (UniProt Q9P2J5) | 0.86 | -0.63 | 0.0502
35 | FKBP9 (UniProt O95302) | 0.508 | -3.58 | -2.22
36 | SEC24B (UniProt O95487) | 0.116 | -0.766 | -0.328
37 | TRIM4 (UniProt Q9C037) | -0.143 | -0.218 | 0.0313
38 | VAC14 (UniProt Q08AM6) | -0.61 | -0.483 | -0.0923
39 | MRPL51 (UniProt Q4U2R6) | -0.0101 | -0.114 | 0.334
40 | NELFE (UniProt P18615) | 0.293 | 0.0818 | 0.467
41 | MPHOSPH6 (UniProt Q99547) | -2.13 | 0.29 | -0.917
42 | PDHX (UniProt O00330) | -6.67 | -0.515 | -0.468
43 | NOP14 (UniProt P78316) | -0.581 | -0.68 | -0.438
44 | TOM1 (UniProt O60784) | 0.244 | 0.231 | -0.536
45 | PSMD12 (UniProt O00232) | -0.133 | -0.0164 | 0.0811
46 | PPP5C (UniProt P53041) | 0.649 | 0.859 | 0.0455
47 | SEL1L (UniProt Q9UBV2) | 0.614 | -2.16 | -1.76
48 | ACBD3 (UniProt Q9H3P7) | 0.21 | 0.447 | 0.826

Row | Target | thermal stability z-score (potassium arsenate) | thermal stability z-score (lipoamide; [1]) | thermal stability z-score (lipoamide; arsenate co-treatment: none)
49 | LLGL1 (UniProt Q15334) | -0.755 | -0.455 | -0.324
50 | MED17 (UniProt Q9NVC6) | -0.697 | 0.255 | -0.466
51 | ABI1 (UniProt Q8IZP0) | -0.656 | -0.715 | -0.452
52 | TIPIN (UniProt Q9BVW5) | 0.349 | -0.58 | 0.146
53 | FAM206A (UniProt Q9NX38) | 0.249 | -0.0394 | -0.233
54 | DYNC1LI1 (UniProt Q9Y6G9) | 0.463 | -0.18 | -0.1
55 | USE1 (UniProt Q9NZ43) | 1.13 | 0.872 | 0.37
56 | CFAP20 (UniProt Q9Y6A4) | 1.07 | 0.686 | -0.433
57 | PARVA (UniProt Q9NVD7) | 1.14 | 0.468 | 0.672
58 | DHRS7B (UniProt Q6IAN0) | 0.0755 | 0.315 | -0.159
59 | PYCR2 (UniProt Q96C36) | -0.765 | 0.43 | -0.4
60 | TBC1D2B (UniProt Q9UPU7) | -0.23 | -0.169 | -0.202
61 | MORF4L1 (UniProt Q9UBU8) | 0.343 | -0.486 | 0.0693
62 | LGMN (UniProt Q99538) | -0.193 | -0.232 | -0.461
63 | SHROOM1 (UniProt Q2M3G4) | 0.508 | -0.159 | -0.157
64 | ERCC4 (UniProt Q92889) | -0.123 | -0.252 | 0.00197
65 | CLASRP (UniProt Q8N2M8) | 0.14 | -0.693 | -0.133
66 | ACO2 (UniProt Q99798) | -1.08 | -0.488 | -0.402
67 | CNPY3 (UniProt Q9BT09) | -0.0267 | -4.03 | -4.98
68 | EIF2S2 (UniProt P20042) | -0.16 | 0.121 | 0.0416
69 | OXR1 (UniProt Q8N573) | 0.101 | 0.209 | 0.17
70 | SOX13 (UniProt Q9UN79) | -0.618 | -0.169 | 0.00372
71 | TMCO3 (UniProt Q6UWJ1) | 0.2 | -0.807 | -1.31
